Common to all, as to format: cell-based
In assay [1] the target is T1, ETV6-TRKC-G623R (Homo sapiens, UniProt Q16288, G623R).
T1 construct: fused on or other part: P41212 (Transcription factor ETV6)
In words: Engineered Ba/F3 cell proliferation inhibition (MTS), ETV6-TRKC-G623R. The note with it: 72 h. An excerpt:
(§1) MTS testing kit was purchased from Promega (Madison, Wis., USA). The RPMI-1640, Fetal bovine serum and Penicillin-Streptomycin were purchased from Gibco (San Francisco, Calif., USA). Dimethyl sulfoxide (DMSO) and Puromycin were purchased from Sigma (St. Louis., Mo., USA). Mouse interleukin-3 (IL-3) was purchased from Cell signaling Technology (Boston, Mass., USA).
(§2) To investigate whether a compound is able to inhibit the activity of TRK fusion mutation in cells, a mechanism-based assay using engineered Ba/F3 cell lines stably overexpressing oncogenic rearrangement or gene mutation of TRK (TPM3-TRKA, TPM3-TRKA-G595R, AFAP1-TRKB, ETV6-TRKC and ETV6-TRKC-G623R) were developed. In this assay, inhibition of TRK fusion mutation was detected by the cell proliferation inhibition of engineered Ba/F3 cells. Engineered Ba/F3 cells were cultured in culture flasks to 40-80% confluence in RPMI-1640 supplemented with 10% fetal bovine serum, 2 ug/mL puromycin. Cells were collected and plated onto 96-well plates at desired cell density (Ba/F3-TPM3-TRKA: 3×10^4/mL, Ba/F3-TPM3-TRKA-G595R: 1×10^5/mL, Ba/F3-AFAP1-TRKB: 1×10^5/mL, Ba/F3-ETV6-TRKC: 3×10^4/mL, Ba/F3-ETV6-TRKC-G623R: 3×10^4/mL). Plates were incubated at 37° C., with 5% CO2 for 4 h. Compounds were then added to the plates with the final compound concentrations of 10000, 3333, 1111, […], 123, 41.2, 13.7, 4.6 and 1.5 nM. Plates were incubated at 37° C., with 5% CO2 for 72 h. A mixture of 20 μl MTS/100 μl medium were added to each well and the plates were incubated at 37° C., with 5% CO2 for exactly 2 h. The reaction was stopped by adding 25 μl of 10% SDS per well. The absorbance was measured at 490 nm and 650 nm (reference wavelength). IC50 was calculated using GraphPad Prism 5.0 software.

The target in assay [2] is T2, TPM3-TRKA-G595R (Homo sapiens, UniProt P04629, G595R).
T2 construct: TPM3 (tropomyosin alpha-3, P06753) fusion partner; expressed in transfected cells; host or cells: Ba/F3; the other entry of the earlier key: TPM3 (P06753, Tropomyosin alpha-3 chain)
T2 sequence (P04629 510-796 G595R limits assumed): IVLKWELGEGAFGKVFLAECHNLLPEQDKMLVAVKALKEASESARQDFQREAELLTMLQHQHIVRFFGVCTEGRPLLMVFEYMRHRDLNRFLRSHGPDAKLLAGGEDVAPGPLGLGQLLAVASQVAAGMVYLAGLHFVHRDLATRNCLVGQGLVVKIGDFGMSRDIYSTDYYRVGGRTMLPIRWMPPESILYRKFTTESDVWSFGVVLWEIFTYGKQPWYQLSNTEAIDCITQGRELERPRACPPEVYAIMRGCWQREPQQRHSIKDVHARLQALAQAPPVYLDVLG
Put plainly: Engineered Ba/F3 cell proliferation inhibition (MTS), TPM3-TRKA-G595R. The note with it: 72 h.
From the text: as §1, §2

Assay [3] has as its system KM12 cells. In words: KM12 cells proliferation inhibition (MTS), mechanism-based assay for TRK. The note with it: Homo sapiens, KM12, 72 h.
From the text: as §1
To investigate whether a compound is able to inhibit the activity of TRK in cells, a mechanism-based assay using KM12 cells was developed. In this assay, inhibition of TRK was detected by the inhibition of KM12 cells proliferation. KM12 cells were cultured in culture flasks to 40-80% confluence in RPMI-1640 plus 10% fetal bovine serum. Cells were collected and plated onto 96-well plates at 1000 cells/well. Plates were incubated at 37° C., with 5% CO2 for 4 h. Compounds were added to the plates, the final compound concentrations were […], 123.5, 41.2, 13.7, 4.6 and 1.5 nM. Place plates at 37° C., with 5% CO2 for KM12 cells 72 h. 20 μl MTS/100 μl medium mixture solution were added to each well and incubate the plates for exactly 2 h. Stop the reaction by adding 25 μl 10% SDS per well. Measure absorbance at 490 nm and 650 nm (reference wavelength). IC50 was calculated using GraphPad Prism 5.0.

Each structure is given as a SMILES string.

T1 sequence (Q16288 whole entry G623R, the tested form may be a part): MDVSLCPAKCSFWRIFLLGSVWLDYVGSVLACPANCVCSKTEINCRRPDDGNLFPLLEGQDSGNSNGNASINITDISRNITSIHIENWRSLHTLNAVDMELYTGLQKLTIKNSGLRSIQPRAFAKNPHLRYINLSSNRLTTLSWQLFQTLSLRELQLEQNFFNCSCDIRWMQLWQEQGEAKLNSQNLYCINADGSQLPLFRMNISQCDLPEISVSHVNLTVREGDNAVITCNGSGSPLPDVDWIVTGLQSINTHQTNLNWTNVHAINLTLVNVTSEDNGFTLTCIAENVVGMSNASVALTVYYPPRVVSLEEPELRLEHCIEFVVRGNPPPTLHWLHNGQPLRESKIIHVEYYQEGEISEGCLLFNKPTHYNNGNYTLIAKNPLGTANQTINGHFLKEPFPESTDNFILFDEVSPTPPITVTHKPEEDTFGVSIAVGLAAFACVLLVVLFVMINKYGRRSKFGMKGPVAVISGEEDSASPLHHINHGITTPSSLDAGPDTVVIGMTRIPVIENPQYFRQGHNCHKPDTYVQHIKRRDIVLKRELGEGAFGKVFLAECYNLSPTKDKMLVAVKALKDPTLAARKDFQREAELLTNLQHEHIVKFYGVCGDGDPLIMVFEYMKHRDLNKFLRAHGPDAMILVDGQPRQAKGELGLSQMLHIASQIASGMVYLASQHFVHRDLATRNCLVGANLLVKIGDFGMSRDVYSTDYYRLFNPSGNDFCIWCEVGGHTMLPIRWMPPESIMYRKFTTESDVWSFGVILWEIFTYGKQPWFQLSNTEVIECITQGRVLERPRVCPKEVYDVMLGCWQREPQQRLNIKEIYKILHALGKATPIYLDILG

For `CN1c2ccn3ncc(c3n2)C(=O)NCC(F)COc2ncc(F)cc2C12CC2` (stereo not shown) [Example 95, (3′E,4′E)-5′,7′-difluoro-2′-methylspiro-[cyclopropane-1,3′-5-oxa-2,9-diaza-1(5,3)-pyrazolo[1,5-a]pyrimidina-4(3,2)-pyridina-cyclodecaphan]-10′-one], the IC50 in assay [1] turned out to be 1 nM.

For the compound `O=C1NCC(O)COc2ncc(F)cc2[C@@]23C[C@@H]2CCN3c2ccn3ncc1c3n2` (stereo partly shown) [Example 83, (1^3E,1^4E,2^1R,2^5S)-3^5-fluoro-6-hydroxy-4-oxa-2^2,8-diaza-1(5,3)-pyrazolo[1,5-a] pyrimidina-3(3,2)-pyridina-2(2,1)-bicyclo [3.1.0]hexanacyclononaphan-9-one], in assay [1], half-maximal inhibition (IC50) required 1 nM.

For `O=C1NCC(F)(F)COc2ncc(F)cc2[C@@]23C[C@@H]2CCN3c2ccn3ncc1c3n2` [Example 81, (1^3E,1^4E,2^1R,2^5S)-3^5,6,6-trifluoro-4-oxa-2^2,8-diaza-1(5,3)-pyrazolo[1,5-a]pyrimidina-3(3,2)-pyridina-2(2,1)-bicyclo[3.1.0] hexanacyclononaphan-9-one], in assay [1], the IC50 stood at 1 nM.

As to `CN1c2ccn3ncc(c3n2)C(=O)NC2(CCc3ncc(F)cc3C13CC3)CC2` [Example 85, (3′E,4′E)-5′-fluoro-2′-methyldispiro-[cyclopropane-1,3′-2,8-diaza-1(5,3)-pyrazolo[1,5-a]pyrimidina-4(3,2)-pyridinacyclononaphane-7′,1″-cyclopropan]-9′-one], the IC50 is 45 nM in assay [1] and 15 nM in assay [2].

`[2H]C([2H])([2H])N1c2ccn3ncc(c3n2)C(=O)NC2(CC2)COc2ncc(F)cc2C12CC2` [Example 91, (3′E,4′E)-5′-fluoro-2′-(methyl-d3)dispiro-[cyclopropane-1,3′-5-oxa-2,8-diaza-1(5,3)-pyrazolo[1,5-a]pyrimidina-4(3,2)-pyridina-cyclononaphane-7′,1″-cyclopropan]-9′-one] gave an IC50 in assay [1] of 2 nM.

In the case of `C[C@H]1CNC(=O)c2cnc3ccc(nn23)N2CC[C@H]3C[C@]32c2cc(F)cnc2O1` [Example 72, (2^1R,2^5S,5S,E)-3^5-fluoro-5-methyl-4-oxa-2^2,7-diaza-1(6,3)-imidazo[1,2-b]pyridazina-3(3,2)-pyridina-2(2,1)-bicyclo[3.1.0] hexanacyclooctaphan-8-one], the IC50 in assay [1] is 5 nM; in assay [2], 3 nM.

In assay [1], `CC1(C)CNC(=O)c2cnn3ccc(nc23)N2CC[C@H]3C[C@]32c2cc(F)cnc2OC1` [Example 80, (1^3E,1^4E,2^1R,2^5S)-3^5-fluoro-6,6-dimethyl-4-oxa-2^2,8-diaza-1(5,3)-pyrazolo[1,5-a] pyrimidina-3(3,2)-pyridina-2(2,1)-bicyclo [3.1.0]hexanacyclononaphan-9-one] displayed a concentration for half-maximal inhibition (IC50) of 4 nM.

Regarding `CN1c2ccn3ncc(c3n2)C(=O)NCC2(CC2)COc2ncc(F)cc2C12CC2` [Example 92, (3′E,4′E)-5′-fluoro-2′-methyldispiro-[cyclopropane-1,3′-5-oxa-2,9-diaza-1(5,3)-pyrazolo[1,5-a]pyrimidina-4(3,2)-pyridina-cyclodecaphane-7′,1″-cyclopropan]-10′-one], in assay [1], half-maximal inhibition (IC50) was put at 5 nM.

Take `C[C@H]1CNC(=O)c2cnn3ccc(nc23)N2CC[C@H]3C[C@]32c2cc(F)cnc2O1` [Example 26, (1^3E,1^4E,2^1R,2^5S,5S)-3^5-fluoro-5-methyl-4-oxa-2^2,7-diaza-1(5,3)-pyrazolo[1,5-a]pyrimidina-3(3,2)-pyridina-2(2,1)-bicyclo[3.1.0]hexanacyclooctaphan-8-one]: the IC50 in assay [1] and in assay [3] was 1 nM throughout.

Consider `O=C1NCCCOc2ncc(F)cc2[C@@]23C[C@@H]2CCN3c2ccn3ncc1c3n2` [Example 76, (1^3E,1^4E,2^1E,2^1R,2^5S)-3^5-fluoro-4-oxa-2^2,8-diaza-1(5,3)-pyrazolo[1,5-a]pyrimidina-3(3,2)-pyridina-2(2,1)-bicyclo[3.1.0]hexana-cyclononaphan-9-one], for which the IC50 in assay [1] was found to be 1 nM.

`O=C1NCC2(CC2)COc2ncc(F)cc2[C@@]23C[C@@H]2CCN3c2ccn3ncc1c3n2` [Example 79, (1′R,3′E,4′E,5′S)-5′-fluorospiro-[cyclopropane-1,6′-4-oxa-2^2,8-diaza-1(5,3)-pyrazolo[1,5-a]pyrimidina-3(3,2)-pyridina-2(2,1)-bicyclo[3.1.0]hexana-cyclononaphan]-9′-one] came in with a half-maximal inhibitory concentration (IC50) in assay [1] of 1 nM.

As for `Nc1nn2ccc3nc2c1C(=O)NC1(CC1)COc1ncc(F)cc1[C@@]12C[C@@H]1CCN32` [Example 98, (1′R,3′E,4′E,5′S)-2′-amino-5′-fluorospiro-[cyclopropane-1,6′-4-oxa-2^2,7-diaza-1(5,3)-pyrazolo[1,5-a]pyrimidina-3(3,2)-pyridina-2(2,1)-bicyclo[3.1.0]-hexanacyclooctaphan]-8′-one], the IC50 in assay [1] is 1 nM.

Turning to `C[C@@H]1CNC(=O)c2cnn3ccc(nc23)N2CC[C@H]3C[C@]32c2cc(F)cnc2O1` [Example 25, (1^3E,1^4E,2^1R,2^5S,5R)-3^5-fluoro-5-methyl-4-oxa-2^2,7-diaza-1(5,3)-pyrazolo[1,5-a]pyrimidina-(3,2)-pyridina-2(2,1)-bicyclo[3.1.0]hexanacyclooctaphan-8-one], the figures for the IC50 in assay [1] and in assay [3] were 7 nM and 2 nM, respectively.

Turning to `[2H]C([2H])([2H])N1c2ccn3ncc(c3n2)C(=O)NC2(CC2)COc2ccc(F)cc2C12CC2` [Example 89, (3′E,4′E)-5′-fluoro-2′-(methyl-d3)dispiro [cyclopropane-1,3′-5-oxa-2,8-diaza-1(5,3)-pyrazolo[1,5-a]pyrimidina-4(1,2)-benzena-cyclononaphan-7′,1″-cyclopropan]-9′-one], the midpoint of inhibition in assay [1], the IC50, lay at 1 nM.

Turning to `CN1c2ccn3ncc(c3n2)C(=O)NCC(F)(F)COc2ncc(F)cc2C12CC2` [Example 94, (3′E,4′E)-5′,7′,7′-trifluoro-2′-methylspiro-[cyclopropane-1,3′-5-oxa-2,9-diaza-1(5,3)-pyrazolo[1,5-a]pyrimidina-4(4,3)-pyridina-cyclodecaphan]-10′-one], 25 nM corresponded to half-maximal inhibition in assay [1] (IC50).

Compound `[2H]C([2H])([2H])N1c2ccn3ncc(c3n2)C(=O)NC2(CCc3ncc(F)cc3C13CC3)CC2` [Example 97, (3′E,4′E)-5′-fluoro-2′-(methyl-d3)-dispiro [cyclopropane-1,3′-2,8-diaza-1(5,3)-pyrazolo[1,5-a]pyrimidina-4(3,2)-pyridinacyclononaphane-7′,1″- cyclopropan]-9′-one] showed a concentration for half-maximal inhibition (IC50) in assay [1] of 25 nM.

The compound `CN1c2ccn3ncc(c3n2)C(=O)NCC(C)(C)COc2ncc(F)cc2C12CC2` [Example 93, (3′E,4′E)-5′-fluoro-2′,7′,7′-trimethylspiro-[cyclopropane-1,3′-5-oxa-2,9-diaza-1(5,3)-pyrazolo[1,5-a]pyrimidina-4(3,2)-pyridina-cyclodecaphan]-10′-one] came in with a half-inhibitory concentration (IC50) in assay [1] of 32 nM.

For `C[C@@H]1CCc2ccc(F)cc2C2(CC2)N(C)c2ccn3ncc(c3n2)C(=O)N1` [Example 55, (R,3′E,4′E)-5′-fluoro-2′,7′-dimethylspiro [cyclopropane-1,3′-2,8-diaza-1(5,3)-pyrazolo[1,5-a]pyrimidina-4(1,2)-benzenecyclononaphan]-9′-one], the IC50 in assay [1] is 87 nM; in assay [3], 5 nM.

In assay [1], `CN1c2ccn3ncc(c3n2)C(=O)NCC(O)COc2ncc(F)cc2C12CC2` (stereo not shown) [Example 96, (3′E,4′E)-5′-fluoro-7′-hydroxy-2′-methyl-spiro[cyclopropane-1,3′-5-oxa-2,9-diaza-1(5,3)-pyrazolo[1,5-a]pyrimidina-4(3,2)-pyridinacyclodecaphan]-10′-one] gave an IC50 of 4 nM.

For `O=C1NCC(F)COc2ncc(F)cc2[C@@]23C[C@@H]2CCN3c2ccn3ncc1c3n2` (stereo partly shown) [Example 82, (1^3E,1^4E,2^1R,2^5S)-3^5,6-difluoro-4-oxa-2^2,8-diaza-1(5,3)-pyrazolo[1,5-a]pyrimidina-3(3,2)-pyridina-2(2,1)-bicyclo[3.1.0] hexanacyclononaphan-9-one], half-maximal inhibition in assay [1] (IC50) required 1 nM.

The record behind these values is patent US11555042B2, “Macrocyclic compounds as TRK kinases inhibitors” (FOCHON BIOSCIENCES, LTD., priority 2018, dated 2023).
